Legend:
[1] = target: T1, PDK1 (Homo sapiens, UniProt O15530); experiment: SelectScreen kinase profiling: PDK1; assay type: biochemical; details: for IC50: 10-point titration, [ATP] 100 μM
T1 sequence (O15530 1-556): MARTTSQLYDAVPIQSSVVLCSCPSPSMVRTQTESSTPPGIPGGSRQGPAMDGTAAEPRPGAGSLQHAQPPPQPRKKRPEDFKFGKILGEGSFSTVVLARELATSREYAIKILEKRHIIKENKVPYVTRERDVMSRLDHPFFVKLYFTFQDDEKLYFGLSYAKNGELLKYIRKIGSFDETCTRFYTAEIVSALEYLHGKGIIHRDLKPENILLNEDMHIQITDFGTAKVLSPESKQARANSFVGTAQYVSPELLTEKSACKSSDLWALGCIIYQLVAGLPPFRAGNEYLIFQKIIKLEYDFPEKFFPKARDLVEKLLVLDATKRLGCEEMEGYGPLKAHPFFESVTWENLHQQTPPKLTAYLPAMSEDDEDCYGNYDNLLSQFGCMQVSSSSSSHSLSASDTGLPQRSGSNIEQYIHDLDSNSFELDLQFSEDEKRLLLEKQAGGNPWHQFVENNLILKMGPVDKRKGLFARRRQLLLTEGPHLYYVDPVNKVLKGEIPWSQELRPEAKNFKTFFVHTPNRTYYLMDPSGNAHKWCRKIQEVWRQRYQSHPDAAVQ
Protocol: (§1) Effect of the indicated compounds on the activity of various kinases was assessed by SelectScreen Kinase Profiling Service (Invitrogen-Life Technologies, Paisley, UK). Assays were performed using 1 μM of the tested compounds and ATP concentration as indicated in the corresponding tables. In the case of […] a screen using 10 μM of the compound was also carried out, as indicated in the corresponding table.

[2] = Toxicity in mice; assay type: in vivo, nude CD-1 mice; details: for body weight of the treated animals / toxicity: 12.5, 25, 50 mg kg^−1 day^−1 i.p., 14 consecutive days; for toxic effect: single dose 750 mg kg^−1 i.p.
Protocol: Each group consisted of 2–3 mice. Body weight, deaths and any other sign of toxicity and changes in behaviour (such as motility, eating and drinking habits) were recorded.
Exponentially growing PC3 cells were harvested, washed twice and resuspended in PBS at a concentration of 2.5 × 10^7 cells ml^−1. A suspension of 5 × 10^6 PC3 cells was injected subcutaneously (s.c.) into the left flank of the recipient mice. When tumours reached a size of ∼70 mm^3 (approximately 15 days after tumour cell implant), mice were divided into seven groups (n=7). […] Control mice were treated with water in an equal volume. The diameters of s.c. growing tumours were measured with a caliper twice a week and the experiment was ended at day 28 after the implantation.
The inositol compounds (12.5–25–50 mg kg^−1 day^−1) and vehicle (water) were given daily by intraperitoneal (i.p.) injections for 14 consecutive days (days 15–28). Tumour size was assessed twice weekly. (A, B) Tumour growth in 2-O-Bn-InsP5-treated mice (A) and InsP5-treated mice (B) compared with control group measured for the duration of the experiment. Results are expressed as mean±s.e. (C) Top: Table showing all P-values for the indicated doses of 2-O-Bn-InsP5 compared to controls at the indicated days of treatment (NS=not significant). Bottom: In vivo anti-tumour activity parameters. The percentage of tumour weight inhibition (TWI%), the tumour growth delay (T−C) and the log cell kill (LCK) were calculated as described in the MATERIALS AND METHODS section. The highest inhibition of tumour volume is reported. […] Tumours were excised 24 h after treatment. Phosphorylation of Akt at its residues Ser473 and Thr308 was assessed by using specific antibodies. Membranes were then stripped and re-probed with an anti-Akt antibody.

[3] = target: RPS6KB1 (p70S6K) (Homo sapiens, UniProt P23443); experiment: SelectScreen kinase profiling: RPS6KB1; assay type: biochemical; details: [ATP] 10 µM
Protocol: as §1

[4] = target: PIK3CG (p110γ) (Homo sapiens, UniProt P48736); experiment: SelectScreen kinase profiling: PIK3CG; assay type: biochemical; details: [ATP] 25 µM
Protocol: as §1

[5] = target: PRKACA (PKA) (Homo sapiens, UniProt P17612); experiment: SelectScreen kinase profiling: PRKACA; assay type: biochemical; details: [ATP] 5 µM
Protocol: as §1

[6] = target: ROCK1 (Homo sapiens, UniProt Q13464); experiment: SelectScreen kinase profiling: ROCK1; assay type: biochemical; details: [ATP] 5 µM
Protocol: as §1

[7] = target: SRC (Homo sapiens, UniProt P12931); experiment: SelectScreen kinase profiling: SRC; assay type: biochemical; details: [ATP] 50 µM
Protocol: as §1

[8] = target: CHEK1 (CHK1) (Homo sapiens, UniProt O14757); experiment: SelectScreen kinase profiling: CHEK1; assay type: biochemical; details: [ATP] 50 µM
Protocol: as §1

[9] = target: PAK6 (Homo sapiens, UniProt Q9NQU5); experiment: SelectScreen kinase profiling: PAK6; assay type: biochemical; details: [ATP] 10 µM
Protocol: as §1

[10] = target: CSNK2A2 (CK2α2) (Homo sapiens, UniProt P19784); experiment: SelectScreen kinase profiling: CSNK2A2; assay type: biochemical; details: [ATP] 50 µM
Protocol: as §1

[11] = target: MAP2K1 (MEK1) (Homo sapiens, UniProt Q02750); experiment: SelectScreen kinase profiling: MAP2K1; assay type: biochemical; details: [ATP] 100 µM
Protocol: as §1

[12] = target: MAPK14 (p38α) (Homo sapiens, UniProt Q16539); experiment: SelectScreen kinase profiling: MAPK14; assay type: biochemical; details: 1 µM compound; [ATP] 100 µM
Protocol: as §1

[13] = target: IRAK4 (Homo sapiens, UniProt Q9NWZ3); experiment: SelectScreen kinase profiling: IRAK4; assay type: biochemical; details: [ATP] 25 µM
Protocol: as §1

[14] = target: PIK3CA/PIK3R1(p110α/p85α) (Homo sapiens, UniProt P42336); experiment: SelectScreen kinase profiling: PIK3CA/PIK3R1; assay type: biochemical; details: [ATP] 25 µM
Protocol: as §1

[15] = target: AURKA (Aurora A) (Homo sapiens, UniProt O14965); experiment: SelectScreen kinase profiling: AURKA; assay type: biochemical; details: 1 µM compound; [ATP] 10 µM
Protocol: as §1

[16] = target: MAPKAPK2 (Homo sapiens, UniProt P49137); experiment: SelectScreen kinase profiling: MAPKAPK2; assay type: biochemical; details: 1 µM compound; [ATP] 5 µM
Protocol: as §1

[17] = target: LCK (Homo sapiens, UniProt P06239); experiment: SelectScreen kinase profiling: LCK; assay type: biochemical; details: [ATP] 50 µM
Protocol: as §1

[18] = target: PRKCB1 (PKCβI) (Homo sapiens, UniProt P05771); experiment: SelectScreen kinase profiling: PRKCB1; assay type: biochemical; details: [ATP] 200 µM
Protocol: as §1

[19] = target: GRK5 (Homo sapiens, UniProt P34947); experiment: SelectScreen kinase profiling: GRK5; assay type: biochemical; details: 1 µM compound; [ATP] 5 µM
Protocol: as §1

[20] = target: JAK1 (Homo sapiens, UniProt P23458); experiment: SelectScreen kinase profiling: JAK1; assay type: biochemical; details: [ATP] 75 µM
Protocol: as §1

[21] = 1 µM compound, [ATP] 100 µM, single point

CSNK2A2 (CK2α2), sequence (P19784 whole entry): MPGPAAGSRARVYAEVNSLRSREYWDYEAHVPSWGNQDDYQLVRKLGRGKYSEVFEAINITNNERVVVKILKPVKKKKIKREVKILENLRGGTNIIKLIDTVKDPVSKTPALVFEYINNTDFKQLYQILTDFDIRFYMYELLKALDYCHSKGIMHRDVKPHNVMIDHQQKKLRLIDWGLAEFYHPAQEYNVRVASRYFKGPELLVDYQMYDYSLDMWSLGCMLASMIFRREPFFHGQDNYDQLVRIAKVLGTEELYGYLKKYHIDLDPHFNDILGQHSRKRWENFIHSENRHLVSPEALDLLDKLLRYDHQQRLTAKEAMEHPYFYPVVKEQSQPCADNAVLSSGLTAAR
AURKA (Aurora A), sequence (O14965 whole entry): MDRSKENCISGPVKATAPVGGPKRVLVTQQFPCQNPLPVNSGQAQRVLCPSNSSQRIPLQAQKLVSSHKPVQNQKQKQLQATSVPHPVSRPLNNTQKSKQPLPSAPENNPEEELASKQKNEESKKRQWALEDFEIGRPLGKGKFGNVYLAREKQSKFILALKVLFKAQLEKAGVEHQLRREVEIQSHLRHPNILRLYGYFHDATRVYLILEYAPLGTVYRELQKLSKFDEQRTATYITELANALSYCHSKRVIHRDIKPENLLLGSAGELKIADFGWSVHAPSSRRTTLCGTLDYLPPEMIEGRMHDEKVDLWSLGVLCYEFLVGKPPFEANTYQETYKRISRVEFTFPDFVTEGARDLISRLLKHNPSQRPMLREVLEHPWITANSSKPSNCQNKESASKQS
PIK3CG (p110γ), sequence (P48736 whole entry): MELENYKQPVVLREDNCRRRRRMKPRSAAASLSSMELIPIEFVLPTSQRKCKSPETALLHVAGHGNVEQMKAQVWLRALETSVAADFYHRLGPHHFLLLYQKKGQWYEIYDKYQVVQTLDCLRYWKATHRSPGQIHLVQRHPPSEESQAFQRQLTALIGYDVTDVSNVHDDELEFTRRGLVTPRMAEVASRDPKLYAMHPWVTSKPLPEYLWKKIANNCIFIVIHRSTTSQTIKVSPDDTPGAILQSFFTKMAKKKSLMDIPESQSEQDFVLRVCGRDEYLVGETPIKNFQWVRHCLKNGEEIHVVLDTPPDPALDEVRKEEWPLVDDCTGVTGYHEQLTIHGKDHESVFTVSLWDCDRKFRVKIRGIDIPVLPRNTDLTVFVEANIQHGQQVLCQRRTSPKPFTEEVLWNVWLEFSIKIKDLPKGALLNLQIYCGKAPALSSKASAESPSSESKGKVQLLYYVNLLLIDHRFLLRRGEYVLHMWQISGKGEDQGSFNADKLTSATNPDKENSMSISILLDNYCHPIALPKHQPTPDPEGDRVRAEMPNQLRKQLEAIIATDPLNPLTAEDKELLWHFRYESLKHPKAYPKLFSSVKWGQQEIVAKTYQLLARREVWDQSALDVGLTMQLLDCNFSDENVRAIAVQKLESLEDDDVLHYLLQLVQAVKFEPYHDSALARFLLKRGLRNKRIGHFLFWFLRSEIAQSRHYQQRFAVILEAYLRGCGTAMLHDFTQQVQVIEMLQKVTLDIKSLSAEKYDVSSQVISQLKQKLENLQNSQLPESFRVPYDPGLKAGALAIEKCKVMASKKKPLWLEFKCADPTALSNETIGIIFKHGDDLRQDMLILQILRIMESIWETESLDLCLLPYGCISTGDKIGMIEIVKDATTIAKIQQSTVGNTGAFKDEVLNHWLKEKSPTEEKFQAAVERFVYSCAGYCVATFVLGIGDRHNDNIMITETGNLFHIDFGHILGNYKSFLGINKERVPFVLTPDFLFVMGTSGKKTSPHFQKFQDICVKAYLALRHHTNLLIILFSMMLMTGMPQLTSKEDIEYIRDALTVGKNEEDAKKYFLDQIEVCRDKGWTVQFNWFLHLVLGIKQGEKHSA
ROCK1, sequence (Q13464 whole entry): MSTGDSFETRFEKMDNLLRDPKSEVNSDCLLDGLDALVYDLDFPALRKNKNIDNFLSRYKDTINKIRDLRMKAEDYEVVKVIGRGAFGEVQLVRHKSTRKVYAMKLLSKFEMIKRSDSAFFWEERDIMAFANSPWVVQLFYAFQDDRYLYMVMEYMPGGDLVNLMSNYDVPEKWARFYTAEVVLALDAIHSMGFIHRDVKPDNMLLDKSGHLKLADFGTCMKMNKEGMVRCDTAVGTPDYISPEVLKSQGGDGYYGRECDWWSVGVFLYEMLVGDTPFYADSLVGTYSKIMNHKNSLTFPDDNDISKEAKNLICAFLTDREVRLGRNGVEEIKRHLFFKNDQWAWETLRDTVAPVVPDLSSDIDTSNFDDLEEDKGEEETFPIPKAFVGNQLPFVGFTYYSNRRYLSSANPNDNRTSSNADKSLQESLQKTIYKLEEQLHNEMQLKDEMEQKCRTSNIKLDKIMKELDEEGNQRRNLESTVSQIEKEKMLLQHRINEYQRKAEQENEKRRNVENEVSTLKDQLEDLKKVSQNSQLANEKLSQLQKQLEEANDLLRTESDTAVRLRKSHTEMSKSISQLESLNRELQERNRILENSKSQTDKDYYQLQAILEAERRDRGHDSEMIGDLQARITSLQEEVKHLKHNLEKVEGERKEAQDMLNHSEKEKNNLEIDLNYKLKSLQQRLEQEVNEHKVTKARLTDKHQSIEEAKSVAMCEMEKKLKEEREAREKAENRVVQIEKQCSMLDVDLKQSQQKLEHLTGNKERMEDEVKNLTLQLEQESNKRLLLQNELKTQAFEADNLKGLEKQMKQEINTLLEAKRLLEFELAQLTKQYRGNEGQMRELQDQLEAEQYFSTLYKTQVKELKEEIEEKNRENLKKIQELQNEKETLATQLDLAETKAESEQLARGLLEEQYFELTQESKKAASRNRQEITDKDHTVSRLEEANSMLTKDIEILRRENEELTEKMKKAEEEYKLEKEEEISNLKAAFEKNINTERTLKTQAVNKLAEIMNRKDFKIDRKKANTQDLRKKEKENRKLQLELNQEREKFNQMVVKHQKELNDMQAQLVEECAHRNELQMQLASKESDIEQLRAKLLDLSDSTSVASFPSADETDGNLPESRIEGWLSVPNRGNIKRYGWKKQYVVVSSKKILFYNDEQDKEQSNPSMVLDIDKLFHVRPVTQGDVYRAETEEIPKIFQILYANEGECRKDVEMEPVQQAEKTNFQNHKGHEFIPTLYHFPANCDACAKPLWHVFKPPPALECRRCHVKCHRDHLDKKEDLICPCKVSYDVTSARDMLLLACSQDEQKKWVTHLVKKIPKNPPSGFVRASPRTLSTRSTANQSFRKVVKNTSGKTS
IRAK4, sequence (Q9NWZ3 whole entry): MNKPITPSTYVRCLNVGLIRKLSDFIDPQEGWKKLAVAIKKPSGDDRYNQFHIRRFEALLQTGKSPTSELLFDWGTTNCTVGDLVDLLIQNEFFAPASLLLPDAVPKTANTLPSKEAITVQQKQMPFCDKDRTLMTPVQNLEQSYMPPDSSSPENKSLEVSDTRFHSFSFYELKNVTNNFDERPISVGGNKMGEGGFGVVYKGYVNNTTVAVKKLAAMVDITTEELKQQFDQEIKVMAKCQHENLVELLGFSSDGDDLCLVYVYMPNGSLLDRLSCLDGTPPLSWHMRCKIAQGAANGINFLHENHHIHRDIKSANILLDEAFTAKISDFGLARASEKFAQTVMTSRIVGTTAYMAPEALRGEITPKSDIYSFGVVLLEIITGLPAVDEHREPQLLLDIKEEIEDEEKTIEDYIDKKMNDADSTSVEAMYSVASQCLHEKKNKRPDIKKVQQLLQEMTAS
MAPKAPK2, sequence (P49137 whole entry): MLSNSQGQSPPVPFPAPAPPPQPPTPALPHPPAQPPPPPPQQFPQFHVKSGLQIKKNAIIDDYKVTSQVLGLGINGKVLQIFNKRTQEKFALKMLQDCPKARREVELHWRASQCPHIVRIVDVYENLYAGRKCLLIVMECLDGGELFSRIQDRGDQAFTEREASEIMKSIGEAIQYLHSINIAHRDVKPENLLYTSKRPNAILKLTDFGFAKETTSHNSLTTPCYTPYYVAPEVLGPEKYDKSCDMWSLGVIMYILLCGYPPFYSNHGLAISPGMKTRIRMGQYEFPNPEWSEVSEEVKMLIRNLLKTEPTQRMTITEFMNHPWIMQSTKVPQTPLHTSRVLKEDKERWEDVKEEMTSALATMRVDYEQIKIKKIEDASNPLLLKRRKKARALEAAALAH
LCK, sequence (P06239 whole entry): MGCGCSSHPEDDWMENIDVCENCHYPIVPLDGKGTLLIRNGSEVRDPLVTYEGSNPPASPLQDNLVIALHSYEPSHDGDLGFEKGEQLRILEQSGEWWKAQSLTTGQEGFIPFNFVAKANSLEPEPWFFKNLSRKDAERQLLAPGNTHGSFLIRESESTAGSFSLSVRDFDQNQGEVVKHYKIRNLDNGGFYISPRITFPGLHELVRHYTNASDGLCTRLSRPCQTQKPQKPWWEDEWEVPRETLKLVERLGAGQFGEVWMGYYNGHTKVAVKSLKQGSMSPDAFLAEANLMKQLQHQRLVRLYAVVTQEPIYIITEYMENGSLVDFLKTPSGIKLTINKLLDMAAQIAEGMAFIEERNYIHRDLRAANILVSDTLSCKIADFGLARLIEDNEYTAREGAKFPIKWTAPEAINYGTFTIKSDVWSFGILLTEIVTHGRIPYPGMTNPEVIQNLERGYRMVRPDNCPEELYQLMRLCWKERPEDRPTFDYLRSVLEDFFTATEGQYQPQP
MAPK14 (p38α), sequence (Q16539 whole entry): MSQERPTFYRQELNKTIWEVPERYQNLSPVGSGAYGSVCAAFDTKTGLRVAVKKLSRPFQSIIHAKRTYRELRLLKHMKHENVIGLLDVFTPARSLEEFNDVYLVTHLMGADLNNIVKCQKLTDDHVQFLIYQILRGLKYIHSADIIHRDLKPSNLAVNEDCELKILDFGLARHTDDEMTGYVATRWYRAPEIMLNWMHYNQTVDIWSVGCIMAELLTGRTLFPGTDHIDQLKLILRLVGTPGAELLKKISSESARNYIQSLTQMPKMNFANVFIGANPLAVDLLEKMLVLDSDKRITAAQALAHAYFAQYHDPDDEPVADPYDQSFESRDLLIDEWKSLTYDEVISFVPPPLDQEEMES

O=P(O)(O)OC1C(OCc2ccccc2)C(OP(=O)(O)O)C(OP(=O)(O)O)C(OP(=O)(O)O)C1OP(=O)(O)O (stereo not shown) [2-O-Bn-InsP5, 2-O-benzyl-myo-inositol 1,3,4,5,6-pentakisphosphate]
inhibition at 1 µM [1, 21]: 79% | IC50 [1]: 26.5 nM | body weight of the treated animals [2]: not different from the untreated mice | toxicity [2]: no evidence of toxicity | tolerability in vivo ([2]; relative to the active dose): well tolerated in vivo even at concentrations 15 times higher the active dose | toxic effect [2]: did not cause any major toxic effect | inhibition at 1 µM ([3]; 1 µM compound): 17% | inhibition at 1 µM ([4]; 1 µM compound): -41% | inhibition at 1 µM ([5]; 1 µM compound): 4% | inhibition at 1 µM ([6]; 1 µM compound): 7% | inhibition at 1 µM ([7]; 1 µM compound): 4% | inhibition at 1 µM ([8]; 1 µM compound): 15% | inhibition at 1 µM ([9]; 1 µM compound): 9% | inhibition at 1 µM ([10]; 1 µM compound): 2% | inhibition at 1 µM ([11]; 1 µM compound): 14% | inhibition at 1 µM [12]: 30% | inhibition at 1 µM ([13]; 1 µM compound): -35% | inhibition at 1 µM ([14]; 1 µM compound): 2% | inhibition at 1 µM [15]: 34% | inhibition at 1 µM [16]: 20% | inhibition at 1 µM ([17]; 1 µM compound): 7% | inhibition at 1 µM ([18]; 1 µM compound): 11% | inhibition at 1 µM [19]: 34% | inhibition at 1 µM ([20]; 1 µM compound): -1%

O=P(O)(O)OC1C(O)C(OP(=O)(O)O)C(OP(=O)(O)O)C(OP(=O)(O)O)C1OP(=O)(O)O (stereo not shown) [InsP5, inositol 1,3,4,5,6-pentakisphosphate]
% Inhibition Mean [1, 21]: 68% | inhibition at 1 µM [1, 21]: 71% | inhibition at 10 µM ([1]; 10 µM compound, [ATP] 100 µM): 70% | IC50 [1]: 613 nM | body weight of the treated animals [2]: not different from the untreated mice | toxicity [2]: no evidence of toxicity | toxic effect [2]: did not cause any major toxic effect | inhibition at 10 µM ([3]; 10 µM compound): 9% | inhibition at 10 µM ([4]; 10 µM compound): 4% | inhibition at 10 µM ([5]; 10 µM compound): 5% | inhibition at 10 µM ([6]; 10 µM compound): 20% | inhibition at 10 µM ([7]; 10 µM compound): 10% | inhibition at 10 µM ([8]; 10 µM compound): 17% | inhibition at 10 µM ([9]; 10 µM compound): 20% | inhibition at 10 µM ([10]; 10 µM compound): 18% | inhibition at 10 µM ([11]; 10 µM compound): 7% | inhibition at 1 µM [12]: 23% | inhibition at 10 µM ([13]; 10 µM compound): -5% | inhibition at 10 µM ([14]; 10 µM compound): 5% | inhibition at 1 µM [15]: 1% | inhibition at 1 µM [16]: 4% | inhibition at 10 µM ([17]; 10 µM compound): -26% | inhibition at 10 µM ([18]; 10 µM compound): 17% | inhibition at 1 µM [19]: 37% | inhibition at 10 µM ([20]; 10 µM compound): -2%

— article PMC2813745, “A novel inhibitor of the PI3K/Akt pathway based on the structure of inositol 1,3,4,5,6-pentakisphosphate” (British Journal of Cancer, 2010)
